According to patent US20080153872A1, “Bis-(Coumarin) Compounds With Anti-Inflammatory Activity” (priority 2005, published 2008):

Assays:
[1] = biological target: T1, human 5-LO (Homo sapiens, UniProt P09917); assay: Human 5-Lipoxygenase, 5-LO, assay in peripheral mononuclear blood cells; format: cell-based; conditions: 10 μM concentration, LTB4 readout
T1 construct: Human peripheral mononuclear blood cells were isolated using Ficoll density separation; endogenous in cells; host or cells: human peripheral blood mononuclear cells
T1 sequence (P09917 1-674): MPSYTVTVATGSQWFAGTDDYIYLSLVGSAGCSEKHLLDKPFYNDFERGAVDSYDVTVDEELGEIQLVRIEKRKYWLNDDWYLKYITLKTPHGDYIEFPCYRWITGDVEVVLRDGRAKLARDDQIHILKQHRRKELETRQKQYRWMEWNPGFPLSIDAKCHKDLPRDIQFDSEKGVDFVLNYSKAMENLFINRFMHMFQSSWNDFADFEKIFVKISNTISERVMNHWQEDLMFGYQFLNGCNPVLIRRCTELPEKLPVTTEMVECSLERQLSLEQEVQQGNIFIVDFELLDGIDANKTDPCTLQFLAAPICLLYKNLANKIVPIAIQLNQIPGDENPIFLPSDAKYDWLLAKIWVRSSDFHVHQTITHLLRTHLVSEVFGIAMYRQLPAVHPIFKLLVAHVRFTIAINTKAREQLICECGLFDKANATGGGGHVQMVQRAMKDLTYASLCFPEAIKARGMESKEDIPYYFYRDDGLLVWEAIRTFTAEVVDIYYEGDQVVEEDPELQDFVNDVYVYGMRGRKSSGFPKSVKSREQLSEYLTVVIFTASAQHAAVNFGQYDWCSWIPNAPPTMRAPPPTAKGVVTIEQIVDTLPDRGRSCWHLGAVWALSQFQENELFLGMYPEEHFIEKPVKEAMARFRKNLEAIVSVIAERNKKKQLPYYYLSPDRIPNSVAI
Description: (§1) All compounds were dissolved in dimethyl sulfoxide (DMSO). Final concentration of the DMSO in all tests was 1% (v/v). Inhibition in all tests is considered preferred if it exceeds 50% at 10 μM concentration (or less).
Human peripheral mononuclear blood cells were isolated using Ficoll density separation. Cells were incubated in Hanks Balanced Salt Solution (HBSS) with compounds for 15 minutes at 37° C. Substrate (arachidonic acid) was added in 20 μM final concentration and cells were incubated for another 15 minutes. LTB4 as a final product of arachidonic acid metabolism was measured using competitive enzyme immunoassay (See, e.g., Safayhi, H. et al. Planta Medica 2000, 66, 110-113) and percentage of inhibition was calculated from the levels of LTB4 in cell supernatant.

[2] = biological target: T2, TxA2 receptor (Homo sapiens, UniProt P21731); assay: Human thromboxane A2, TxA2, assay (SQ-29548 competition); format: binding; conditions: 10 μM concentration; HEK-293
T2 construct: expressed in transfected cells; host or cells: HEK-293
T2 sequence (P21731 1-343): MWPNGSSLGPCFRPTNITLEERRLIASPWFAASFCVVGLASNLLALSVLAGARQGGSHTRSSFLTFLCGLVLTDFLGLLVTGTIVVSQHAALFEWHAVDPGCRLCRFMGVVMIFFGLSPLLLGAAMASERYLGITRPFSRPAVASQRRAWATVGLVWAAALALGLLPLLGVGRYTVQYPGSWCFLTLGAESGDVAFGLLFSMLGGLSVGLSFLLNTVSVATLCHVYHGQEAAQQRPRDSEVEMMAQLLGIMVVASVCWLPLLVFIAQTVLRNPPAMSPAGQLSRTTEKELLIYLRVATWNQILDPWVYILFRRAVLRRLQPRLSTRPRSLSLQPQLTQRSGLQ
Description: as §1
TxA2 receptor is expressed in HEK-293 cell line. Compounds and radiolabelled competitor SQ-29548 are incubated for 30 minutes at 25° C. Level of bound SQ-29548 is measured by scintillation counting, and competition is calculated from the total amount of the bound SQ-29548. […] is an unstable lipid mediator involved in blood clotting, and immune processes.

[3] = test system: human PDE4; assay: Human PDE4 assay (U937); format: biochemical; conditions: 10 μM concentration
Description: as §1
(§2) PDE4 assay. PDE is implicated in diseases such as chronic obstructive pulmonary disease and neutrophilia. Human monocytic leukemia cell line U937 is pre-incubated at 25° C. in Tris-HCl buffer containing magnesium ions for 15 minutes. 1.01 μM tritium labeled cyclic adenosine monophosphate (cAMP) is added as substrate, followed by incubation at 25° C. for 20 minutes. Percentage of inhibition is calculated by comparing the adenosine levels in supernatant which is formed from cAMP in treated versus control cells.

[4] = biological target: T3, human PDE3 (Homo sapiens, UniProt Q14432); assay: Human PDE3 assay (platelets); format: biochemical; conditions: 10 μM concentration
T3 construct: Isolated human platelets are pre-incubated at 25° C; from tissue; host or cells: human platelets
Description: as §1
as §2, with “PDE3” for “PDE4”, “Isolated human platelets are” for “PDE is implicated in diseases such as chronic obstructive pulmonary disease and neutrophilia. Human monocytic leukemia cell line U937 is”

[5] = test system: CD1 mice; assay: PMA induced ear oedema in CD1 mice; format: in vivo, mouse; conditions: topical, single dose of 250 or 100 μg/15 μL/ear; statistically significant vs positive control
Description: Male CD1 mice (Iffa Credo, France) weighing ˜35-40 g were randomly grouped (n=8 in vehicle treated test group, dexamethasone treated control group as well as in groups treated with compounds to be assayed). Test compounds, dexamethasone as well as vehicle (Trans-phase Delivery System, containing benzyl alcohol 10%, acetone 40% and isopropanol 50%) (all from Kemika, Croatia), were administered topically to the internal surface of the left ear thirty minutes prior to administration of phorbol 12-myristate 13-acetate (PMA) (Alexis biochemicals, USA). Test compounds were administered at a single dose of 250 or 100 μg/15 μL/ear and dexamethasone at a single dose of 50 μg/15 μL/ear. Thirty minutes later, 0.01% PMA solution in acetone was applied topically to the same area of each animal in a volume of 12 μL/ear. During the treatment and challenge, animals were anaesthetized by using inhalation anaesthesia. Six hours after the challenge, animals were euthanized by asphyxiation in 100% CO2 atmosphere. For assessing the auricular oedema, 8 mm discs were cut out of left and right auricular pinna and weighed. The degree of oedema was calculated by subtracting the weight of 8 mm disc of the untreated ear from that of the treated contralateral ear.

[6] = biological target: T4, CysLT1 receptor (Homo sapiens, UniProt Q9Y271); assay: Human cysteinyl leukotriene receptor 1 (CysLT1) radioligand binding assay; conditions: 10 μM concentration; CHO-K1 cells
T4 construct: expressed in transfected cells; host or cells: CHO-K1
T4 sequence (Q9Y271 1-337): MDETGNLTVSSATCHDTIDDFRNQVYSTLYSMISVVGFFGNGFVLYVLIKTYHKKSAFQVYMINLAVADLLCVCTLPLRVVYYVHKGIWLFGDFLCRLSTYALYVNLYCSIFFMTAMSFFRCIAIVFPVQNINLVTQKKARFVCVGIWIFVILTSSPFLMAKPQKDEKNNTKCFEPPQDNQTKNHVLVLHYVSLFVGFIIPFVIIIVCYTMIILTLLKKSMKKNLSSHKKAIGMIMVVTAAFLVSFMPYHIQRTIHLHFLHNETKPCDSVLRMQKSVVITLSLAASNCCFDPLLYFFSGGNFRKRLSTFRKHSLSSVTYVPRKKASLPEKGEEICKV
Description: as §1
CysLT1 receptor is involved in immune diseases such as asthma, and has clinical significance as a point of intervention in asthma therapy. CysLT1 receptor is expressed in CHO-K1 cells (Chinese hamster ovary cells K1 clone). This is a competitive radioligand binding assay where substances compete with [^3H]-labeled Leulcotirene D4 (LTD4). Radioactive substance is measured with scintillation counting. Percentage of inhibition is calculated from the total radioactivity of the sample.

[7] = test system: Human prostanoid receptor; assay: Human prostanoid receptor assay ([3H]-PGD2 competition); format: binding; conditions: 10 μM concentration; CHO-K1
Description: as §1
Human prostanoid receptor is expressed in Chinese hamster ovary cell line, clone K1 (CHO-K1). Substances and radioactive competitor (tritium labelled Prostaglandin D2 in 1.7 nM concentration) are incubated with cells in HEPES buffer for 2 hours at 25° C. in the presence of manganese ions. Level of the bound PGD2 is measured by scintillation counting, and competition is calculated from comparing the total amount of the bound PGD2 in treated versus control cells. Prostanoids are involved in many physiological and pathological processes, from inflammation to pain.

[8] = test system: IL-5; assay: Inhibition of IL-5 production by ConA stimulated mouse splenocytes; format: cell-based; conditions: 25 μM
Description: Spleen cell suspension was obtained from BALB/c mice and lymphocytes separated by gradient density centrifugation on Histopaque 1.083 on 400 g for 30 minutes. They were washed once in medium, counted and their number adjusted as 3×10^5/200 μL/well in 96 flat bottomed culture plate in RPMI supplemented with 10% fetal bovine serum. Cells were stimulated on cytokine production by adding concanavalinA (ConA) at 5 μg/mL final concentration. Unstimulated cells were cultured in medium alone. Stock solution was prepared out of testing compounds as 10 mM in DMSO. Final concentrations made in cell culture medium were tested when they had been added together with ConA. After 72 hours incubation period cell culture supernatants were collected. In each sample IL-4, IL-5, IL-10 and IFNγ were detected and quantified using enzyme linked immunosorbent assay (ELISA) specific for pointed cytokines (R&D Systems).
To calculate results, standard curve was made out of measured OD values for recombinant protein in known concentrations. Cytokine content in unknown samples was calculated out of OD values extrapolated from the standard curve.
Percentage of inhibition is calculated using formula:
% Inhibition=(1−cytokine concentration of sample/cytokine concentration of positive control)×100.

T3 sequence (Q14432 whole entry): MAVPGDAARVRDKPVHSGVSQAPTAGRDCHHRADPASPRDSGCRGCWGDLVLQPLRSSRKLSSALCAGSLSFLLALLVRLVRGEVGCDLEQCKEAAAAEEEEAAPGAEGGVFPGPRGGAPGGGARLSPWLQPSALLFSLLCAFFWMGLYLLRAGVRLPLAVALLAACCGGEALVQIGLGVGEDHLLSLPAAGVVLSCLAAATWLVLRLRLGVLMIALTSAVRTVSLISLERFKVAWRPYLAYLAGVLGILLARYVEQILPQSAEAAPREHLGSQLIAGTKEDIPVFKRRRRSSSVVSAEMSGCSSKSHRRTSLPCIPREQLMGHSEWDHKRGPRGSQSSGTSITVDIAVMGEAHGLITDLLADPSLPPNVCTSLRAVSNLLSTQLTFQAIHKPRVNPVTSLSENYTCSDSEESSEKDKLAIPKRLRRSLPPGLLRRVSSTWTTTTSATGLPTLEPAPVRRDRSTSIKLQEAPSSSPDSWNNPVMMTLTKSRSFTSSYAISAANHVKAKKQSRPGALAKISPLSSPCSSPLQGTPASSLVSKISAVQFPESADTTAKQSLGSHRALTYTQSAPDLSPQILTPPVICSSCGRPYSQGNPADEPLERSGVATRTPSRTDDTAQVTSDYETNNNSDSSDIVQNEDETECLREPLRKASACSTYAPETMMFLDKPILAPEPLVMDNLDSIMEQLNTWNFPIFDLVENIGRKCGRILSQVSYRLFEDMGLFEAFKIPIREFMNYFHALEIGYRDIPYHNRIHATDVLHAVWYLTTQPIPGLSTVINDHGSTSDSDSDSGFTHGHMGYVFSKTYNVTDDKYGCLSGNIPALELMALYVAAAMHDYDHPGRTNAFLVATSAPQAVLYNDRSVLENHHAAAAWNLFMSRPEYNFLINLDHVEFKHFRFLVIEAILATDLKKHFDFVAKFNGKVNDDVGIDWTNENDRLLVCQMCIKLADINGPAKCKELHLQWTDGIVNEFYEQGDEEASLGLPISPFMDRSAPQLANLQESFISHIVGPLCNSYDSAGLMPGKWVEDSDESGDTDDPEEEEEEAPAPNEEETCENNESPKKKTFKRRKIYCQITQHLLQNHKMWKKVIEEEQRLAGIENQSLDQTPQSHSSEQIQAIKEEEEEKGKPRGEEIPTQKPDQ

## CCc1cccc2c(O)c(C(C(C)=O)c3c(O)c4cccc(CC)c4oc3=O)c(=O)oc12 [Example 17]
[1]
  inhibition of human 5-LO: significantly relevant activity
[2]
  TxA2 receptor, competition with SQ-29548: significantly relevant activity
[3]
  inhibition of human PDE4 activity: significantly inhibited
[4]
  inhibition of human PDE3 activity: significantly inhibited

## CC(=O)C(c1c(O)c2cc(Cl)c(C)cc2oc1=O)c1c(O)c2cc(Cl)c(C)cc2oc1=O [Example 25]
[5]
  suppression of ear oedema: considered active

## CCc1ccc2oc(=O)c(C(C(C)=O)c3c(O)c4cc(CC)ccc4oc3=O)c(O)c2c1 [Example 26]
[5]
  suppression of ear oedema: considered active

## Cc1cc2oc(=O)c(C(CO)c3c(O)c4cc(C)c(C)cc4oc3=O)c(O)c2cc1C [Example 28]
[5]
  suppression of ear oedema: considered active

## CCc1ccc2oc(=O)c(C(CO)c3c(O)c4cc(CC)ccc4oc3=O)c(O)c2c1 [Example 29]
[5]
  suppression of ear oedema: considered active

## Cc1cc2oc(=O)c(C(C(=O)OCCO)c3c(O)c4cc(C)c(C)cc4oc3=O)c(O)c2cc1C [Example 51]
[5]
  suppression of ear oedema: considered active

## Cc1cc2oc(=O)c(C(C(=O)OCCO)c3c(O)c4cc(Cl)c(C)cc4oc3=O)c(O)c2cc1Cl [Example 54]
[5]
  suppression of ear oedema: considered active

## O=c1oc2ccccc2c(O)c1C(c1cccc(Cl)c1)c1c(O)c2ccccc2oc1=O [Example 66]
[5]
  suppression of ear oedema: considered active

## CCOC(=O)C(c1c(O)c2cccc(C(C)C)c2oc1=O)c1c(O)c2cccc(C(C)C)c2oc1=O [Example 292]
[5]
  suppression of ear oedema: considered active

## O=c1oc2ccccc2c(O)c1C(c1ccc2c(c1)OCO2)c1c(O)c2ccccc2oc1=O [Example 349]
[5]
  suppression of ear oedema: considered active
[1]
  inhibition of human 5-LO: significantly relevant activity
[2]
  TxA2 receptor, competition with SQ-29548: significantly relevant activity
[6]
  CysLT1 receptor, competition with [3H]-LTD4: significantly relevant activity

## O=c1oc2ccccc2c(O)c1C(c1cnc2ccccc2c1)c1c(O)c2ccccc2oc1=O [Example 351]
[7]
  human prostanoid receptor, competition with tritium labelled PGD2: significantly relevant activity
[5]
  suppression of ear oedema: considered active
[1]
  inhibition of human 5-LO: significantly relevant activity
[6]
  CysLT1 receptor, competition with [3H]-LTD4: significantly relevant activity
[3]
  inhibition of human PDE4 activity: significantly inhibited
[4]
  inhibition of human PDE3 activity: significantly inhibited

## CC(C)c1cccc2c(O)c(C(c3c(O)c4cccc(C(C)C)c4oc3=O)C(C)O)c(=O)oc12 (stereo not drawn) [Example 364]
[5]
  suppression of ear oedema: considered active
[8]
  inhibition of IL-5 production: significantly inhibited
